These results are taken from ChEMBL document CHEMBL1153286, “Synthesis and biological evaluation of sulfonylurea and thiourea derivatives substituted with benzenesulfonamide groups as potential hypoglycemic agents” (Bioorg Med Chem Lett, 2009).

The structures appear in SMILES notation. Calls of active or inactive are those of the source.

Data set [1] relates to Adipocyte. The data set is described as follows: Effect on 2-deoxy-D-[1-3H]glucose transport in Sprague-Dawley rat adipocytes at 100 uM in absence of insulin by liquid scintillation counting. The format is functional.
Data set [2] deals with Mus musculus. Briefly: Protection against collagen-epinephrine-induced mortality in Chinese Kunming cerebral thrombosis mouse model assessed as survival rate at 20 mg/kg, po administered once daily for 7 days measured on day 7 within 15 mins of collagen-epinephrine challenge. It counts as functional.
Data set [3] relates to Mus musculus. The data set is described as follows: Protection against collagen-epinephrine-induced mortality in Chinese Kunming cerebral thrombosis mouse model assessed as survival rate at 40 mg/kg, po administered once daily for 7 days measured on day 7 within 15 mins of collagen-epinephrine challenge. It counts as functional.
The subject of data set [4] is Adipocyte. Briefly: Effect on 2-deoxy-D-[1-3H]glucose transport in Sprague-Dawley rat adipocytes at 10 uM in absence of insulin by liquid scintillation counting. The format is functional.
Data set [5] in a line: Antiplatelet activity in human platelets assessed as inhibition of arachidonic acid-induced platelet aggregation. It counts as functional, cell-based.
The test system of data set [6] is Adipocyte. Briefly: Effect on 2-deoxy-D-[1-3H]glucose transport in Sprague-Dawley rat adipocytes at 100 uM in presence of insulin by liquid scintillation counting. It counts as functional.
The nature of data set [7]: Tmax in rat at 2.5 mg/kg, iv or 5 mg/kg, po. It counts as ADME, organism-based. The note with it: in vivo.
The subject of data set [8] is Mus musculus. The data set is described as follows: Reduction of plasma glucose level in fasted C57BL/6J mouse at 2.5 mg/kg, po administered daily for 3 days measured on day 5 by glucose oxidase trinder method. It counts as functional, organism-based. More on the design: dose 2.5 mg/kg.
The test system of data set [9] is Mus musculus. Briefly: Reduction of plasma glucose level in fasted C57BL/6J mouse at 20 mg/kg, po administered daily for 3 days measured on day 5 after 6 hrs by glucose oxidase trinder method. On the set-up: scale not given: the % may be the effect or the level left. The format is functional.
The nature of data set [10]: Half life in rat at 5 mg/kg, po. It counts as ADME, organism-based. More on the design: dose 5 mg/kg, route oral. To be noted: in vivo.
Data set [11] can be described thus: Effect on insulin release in rat pancreatic cells at 100 umol/L after 6 hrs by radioimmunoassay. It counts as functional.
Data set [12] in a line: Clearance in rat at 2.5 mg/kg, iv or 5 mg/kg, po. It counts as ADME, organism-based. The note with it: in vivo.
The subject of data set [13] is Adipocyte. The data set is described as follows: Effect on 2-deoxy-D-[1-3H]glucose transport in Sprague-Dawley rat adipocytes at 10 uM in presence of insulin by liquid scintillation counting. It counts as functional.
The subject of data set [14] is Adipocyte. Briefly: Effect on 2-deoxy-D-[1-3H]glucose transport in Sprague-Dawley rat adipocytes at 1 uM in presence of insulin by liquid scintillation counting. It counts as functional.
Data set [15] has as its system Adipocyte. Briefly: Effect on 2-deoxy-D-[1-3H]glucose transport in Sprague-Dawley rat adipocytes at 1 uM in absence of insulin by liquid scintillation counting. The format is functional.
A short description of data set [16]: Effect on insulin release in rat pancreatic cells at 10 umol/L after 6 hrs by radioimmunoassay. The format is functional.
The subject of the next data set is Rattus norvegicus. Briefly: AUC in rat at 5 mg/kg, po. The format is ADME, organism-based, Plasma. More on the design: dose 5 mg/kg, route oral. The note with it: in vivo.
Data set [17] is described as follows: Volume of distribution in rat at 2.5 mg/kg, iv or 5 mg/kg, po. The format is ADME, organism-based. To be noted: in vivo.
For data set [18], the system named is Mus musculus. The data set is described as follows: Protection against collagen-epinephrine-induced mortality in Chinese Kunming cerebral thrombosis mouse model assessed as survival rate at 10 mg/kg, po administered once daily for 7 days measured on day 7 within 15 mins of collagen-epinephrine challenge. The format is functional.
Data set [19] is described as follows: Oral bioavailability in rat at 5 mg/kg, po. The format is ADME, organism-based. To be noted: in vivo.
A short description of data set [20]: Increase in insulin release in rat pancreatic cells at 100 umol/L after 6 hrs by radioimmunoassay relative to basal level. It counts as functional.
The nature of data set [21]: Half life in rat at 2.5 mg/kg, iv. It counts as ADME, organism-based. On the set-up: dose 2.5 mg/kg, route intravenous. The note with it: in vivo.
Data set [22] can be described thus: Effect on insulin release in rat pancreatic cells at 1 umol/L after 6 hrs by radioimmunoassay. The format is functional.
Data set [23] concerns Adipocyte. The data set is described as follows: Increase in glucose absorption in Sprague-Dawley rat adipocytes at 100 uM by liquid scintillation counting relative to basal level. The format is functional.
Data set [24] in a line: Antiplatelet activity in human platelets assessed as inhibition of ADP-induced platelet aggregation. It counts as functional, cell-based.
Data set [25] has as its system Mus musculus. The data set is described as follows: Reduction of plasma glucose level in fasted C57BL/6J mouse at 7 mg/kg, po administered daily for 3 days measured on day 5 by glucose oxidase trinder method. The format is functional, organism-based. More on the design: dose 7 mg/kg.
Data set [26] can be described thus: Cmax in rat at 2.5 mg/kg, iv or 5 mg/kg, po. The note with it: in vivo. It counts as ADME, organism-based.
The test system of data set [27] is Mus musculus. The data set is described as follows: Protection against collagen-epinephrine-induced mortality in Chinese Kunming cerebral thrombosis mouse model assessed as survival rate at 60 mg/kg, po administered once daily for 7 days measured on day 7 within 15 mins of collagen-epinephrine challenge. The format is functional.

The IC50 is the concentration that gives 50% inhibition. One may read the Tmax as the time at which the peak concentration occurs. Usually half-life stands for the time needed for the level to fall by half in the phase considered. The AUC is the area under the concentration-time curve, a measure of exposure. The term bioavailability denotes the share of a dose that reaches the circulation, judged against a reference dose that is usually intravenous. Usually Cmax stands for the maximum level reached in the sampled fluid or tissue. Regarding `CC1CCC(NC(=O)NS(=O)(=O)c2ccc(CCNS(=O)(=O)c3ccc(Br)cc3)cc2)CC1` (stereo not given), the Activity with Adipocyte [1] stood at 7674.84 disintegrations/minute; with Adipocyte [4], 6512.65 disintegrations/minute; in the data set with Adipocyte [6] it was 8486.79 disintegrations/minute; in the data set with Mus musculus [9], 50%; in [11], 86.08 uIU/ml; in the data set on Adipocyte [13] it was 7979.94 disintegrations/minute. The Activity is 5996.43 disintegrations/minute with Adipocyte [14], 4871.74 disintegrations/minute in the data set with Adipocyte [15], 65.21 uIU/ml in data set [16] and 40.79 uIU/ml in data set [22]. Further, the survival at 20 mg/kg with Mus musculus [2] turned out to be 45.5%. The survival at 40 mg/kg in the data set on Mus musculus [3] was determined as 72.7%. The figures for the concentration for half-maximal inhibition (IC50) in [5] and in data set [24] were 0.21 µM and 3 µM, respectively. Also, the Tmax in [7] amounted to 0.83 h. Besides, the outcome in the data set on Mus musculus [8] and with Mus musculus [25] was Active. Also, the half-life in data set [10] is 1.77 h; in [21] it was 1.91 h. This compound showed a clearance in [12] of 6 mL/min. In addition, in the data set on Rattus norvegicus, the AUC was found to be 10000 ng·h/mL. The Vd in data set [17] was 0.78 L/kg. The survival at 10 mg/kg with Mus musculus [18] amounted to 27.3%. This compound also had a bioavailability in data set [19] of 52.7%. The “fold change (FC)” value amounted to 3.64 in [20] and 1.73 in the data set with Adipocyte [23]. For the same compound, in data set [26], the concentration peaked (Cmax) at 3330 ng/mL.
For the compound `CC1CCC(NC(=O)NS(=O)(=O)c2ccc(CCNS(=O)(=O)c3ccc(Cl)cc3)cc2)CC1` (stereo not given), the Activity in the data set on Adipocyte [1] is 6960.26 disintegrations/minute; in the data set with Adipocyte [4] it was 6411.7 disintegrations/minute; in the data set with Adipocyte [6], 7013.28 disintegrations/minute; in data set [11], 72.23 uIU/ml; with Adipocyte [13], 6358.77 disintegrations/minute; in the data set on Adipocyte [14] it was 5972.68 disintegrations/minute. In addition, the Activity in the data set with Adipocyte [15] was 5869.85 disintegrations/minute; in data set [16], 41.29 uIU/ml; in data set [22], 38.15 uIU/ml. Further, the results for the “fold change (FC)” value (in [20]; with Adipocyte [23]) were 3.05 and 1.57, respectively.
As to `CC(=O)Oc1ccccc1C(=O)O` [ASPIRIN], the results for the IC50 in data set [5] and in [24] were 0.35 µM and 9.34 µM, respectively. The survival at 60 mg/kg in the data set with Mus musculus [27] turned out to be 63.6%.
Consider `CCC1=C(C)CN(C(=O)NCCc2ccc(S(=O)(=O)NC(=O)N[C@H]3CC[C@H](C)CC3)cc2)C1=O` [GLIMEPIRIDE], for which the Activity in the data set on Adipocyte [1] worked out at 11068.51 disintegrations/minute; in the data set on Adipocyte [4], 7476.6 disintegrations/minute; in the data set on Adipocyte [6] it was 13255.41 disintegrations/minute; in data set [11] it was 48.14 uIU/ml; in the data set with Adipocyte [13] it was 8593.72 disintegrations/minute; in the data set on Adipocyte [14] it was 6365.67 disintegrations/minute. Moreover, the Activity in the data set with Adipocyte [15] worked out at 5061.2 disintegrations/minute. Besides, the “fold change (FC)” value was 2.03 in data set [20] and 2.5 in the data set with Adipocyte [23].
